Measurements taken from patent US8349583B2, “Distinguishing cells in a sample by inactivating extracellular enzyme before releasing intracellular enzyme” (priority 2005, dated 2013).
Several values for one entry are separate records, joined by “and”; a condition that tells them apart may be missing. Equal values may be shown once. Marks after values point to notes of the source that are not given here.

Assays:
Format in all cases: biochemical
[1] = AK activity after transient pH drop or acidic incubation at pH 4; settings: for AK activity relative to control: listed as AK alone
Experimental: (§1) Experimental work used adenylate kinase-generated ATP to drive a luciferin/luciferase activity, giving results in RLUs as a quantitative measure of initial ATP levels. All AK assays were performed at pH 7.5, and 37° C. Results of the assay were read at ambient temperature.
In further experiments, three treatment conditions were tested: (i) a control, run at pH 7.5 with no pH change; (ii) a transient pH drop before the assay, where pH was reduced to pH 4 and then returned to pH 7.5; and (iii) an acidic incubation, where pH was reduced to pH 4 for 15 minutes. AK activity was then assessed. In parallel tests, the effect of these pH conditions on the viability of E. coli and E. faecalis was assessed.

[2] = Effect of incubation pH on purified AK activity (luciferin/luciferase)
Experimental: as §1
To assess the effect of pH on AK activity, purified enzyme was incubated for 1 hour at various pH, with pH 7.5 being the control (normal assay conditions). AK activity was measured by using the bioluminescent luciferin/luciferase to detect AK-generated ATP.

[3] = test system: bacterial adenylate kinase; experiment: AK reduction by different proteases over time for different organisms; settings: 37° C., 10 to 120 minutes; trypsin 1000, papain 10, proteinase K 2.5, chymotrypsin 1 U/ml
Experimental: • 1. Bacteria were scraped from plates and inoculated in approximately 20 ml of broth only. These were incubated overnight at 37° C. • 2. 10× stocks of the enzymes were prepared in broth only: • a. 10 mg of 16,000 U/mg Trypsin added to 16 ml of broth to give 10,000 U/ml (10×) stock. • b. 25 mg of 4 U/mg Papain added to 1 ml of broth to give 100 U/ml (10×) stock. • c. 10 mg of 7.5 U/mg proteinase K added to 3 ml of broth to give a 25 U/ml (10×) stock. • d. 10.5 ul of 239 U/ml chymotrypsin added to 239.5 ul of broth to give a 10 U/ml stock. • 3. The inoculums were then centrifuged at approximately 14030 RCF for one hour. • 4. The supernatant was then taken, tested for adenylate kinase activity (described below), and diluted with broth only if needed to give about 10^5 cpm/ml. • 5. The supernatant was then assayed for adenylate kinase activity at time point zero in triplicate and averaged. • 6. 1.5 ml solutions of the supernatants were prepared with the correct concentration of enzyme, or broth for control. These were incubated at 37° C. • 7. Samples were then taken and assayed in triplicate for adenylate kinase activity at 10, 30, 60 and 120 minutes. • 8. The triplicates were averaged, and normalised by dividing by the time point zero average. Adenylate Kinase Assay (AK Only No Cells) • 1. […] added to a cuvette. • 2. […] RLU read immediately. […]

Substance | AK activity relative to control ([1]; acidic incubation: pH 4 for 15 minutes) | reduction in AK activity ([1]; incubation at pH 4) [fold] | AK activity relative to control ([1]; transient pH drop: reduced to pH 4 and returned to pH 7.5) | AK activity, RLU ([2]; incubated 1 hour at pH 3) | AK activity, RLU ([2]; incubated 1 hour at pH 4) | AK activity, RLU ([2]; incubated 1 hour at pH 5) | AK activity, RLU ([2]; incubated 1 hour at pH 6) | AK activity, RLU ([2]; incubated 1 hour at pH 7.5 (control, normal assay conditions)) | AK activity, RLU ([2]; incubated 1 hour at pH 9) | AK activity, RLU ([2]; incubated 1 hour at pH 10) | AK activity, RLU ([2]; incubated 1 hour at pH 11) | AK activity, RLU ([2]; incubated 1 hour at pH 12) | degradation of AK extracted from different organisms [3]
adenylate kinase [AK] | 13% and 8% | ~10 | 91% and 89% | 15.7 RLU (10^3) | 11.1 RLU (10^3) | 299.0 RLU (10^3) | 333.5 RLU (10^3) | 288.2 RLU (10^3) | 262.4 RLU (10^3) | 214.5 RLU (10^3) | 201.2 RLU (10^3) | 88.6 RLU (10^3) | –
chymotrypsin | – | – | – | – | – | – | – | – | – | – | – | – | degraded the AK in a similar manner to trypsin
